From patent EP2738172A1 (Almirall, S.A., priority 2012, dated 2014)

Experiments:
[1] = tested on: Jurkat E6-1 cells; assay: fluorescent calcium flux assay (FLIPR, thapsigargin store depletion); type: cell-based; details: Homo sapiens, Thapsigargin 10µM, 2mM final calcium concentration, FLIPR Calcium 5 dye, read-out: Ca^2+ flux IC50
Procedure: fluorescent calcium flux assay
Jurkat E6-1 cells were obtained from ATCC (number TIB-152™) and maintained as ATCC recommend; in medium RPMI-1640 with 10% FBS at 37°C and 5% CO2.
Before the assay, Jurkat cells were grown at a density of 2 millions cells/ml in cell culture media (RPMI with 10% FBS) in a T-175 flask at 37°C and 5% CO2. The day of the assay, cells were harvested by centrifugation (5 minutes at 1500 rpm) and the pellet were suspended in Ca^2+ free assay buffer (HBSS w/o Ca^2+ and Mg^2+, 20mM Hepes and 1 mM MgCl2, pH 7.4) at a density of 5 million cells/ml.
Calcium depletion was initiated by the addition to the cell suspension of Thapsigarguin at a final assay concentration of 10µM. 20µl of the cellular suspension containing Thapsigargin (100.000 cells/well) were plated into 384 well plates (corning 3711) and incubated at RT for 15 minutes.
Test compounds were diluted in DMSO 100% to get a 10^-2M stock solution and serial dilutions 1/3 were performed in the same solvent. Then, 20µl of test compounds, diluted 75 times in Ca^2+ free assay buffer, were added to the cells and incubated at RT for 1h.
Once this incubation was completed, 5 µl of dye solution (FLIPR Calcium 5 Express Kit, Molecular Devices), prepared as Molecular Devices recommend, were added into the assay plates followed by an extra incubation period of 1 hour at room temperature. After the second incubation period, assay plates were placed into the FLIPR Tetra from Molecular Devices. Fluorescence was measured at a wavelength of 525nm after the dye excitation at 485nm. The initial baseline was measured during 20 seconds, and then 8µl of a 13mM Calcium solution in assay buffer were added (2mM final calcium concentration) except for basal wells, where assay buffer without calcium was added. At this time, changes in the cellular fluorescent were measured for an extra 80 seconds.
Peak and base line were taken for the calculation of the ratio (Peak/Base Line). Total, basal and compound well ratio values were used to calculate %Inhibition.

[2] = tested on: Jurkat E6-1 cells; assay: In vitro assay of cytokine release from T cells (IL-2 ELISA); type: cell-based; details: Homo sapiens, Jurkat cells stimulated with PHA 20 µg/ml, 20 hours, secreted IL-2 by ELISA, read-out: Jurkat IL2 IC50
Procedure: In vitro assay of cytokine release from T cells
Jurkat E6-1 cells were obtained from American Type Culture Collection (ATCC) and maintained in complete medium with 10% fetal bovine serum (FBS) at 37°C/5%CO2. Cells were plated in 100 µL of Dubelcco's Modified Eagle Medium (DMEM) with 1% FBS in a 96 well plate at a density of 1x10^6 cells/well and 50 µL of test compound was added. Cells were then stimulated by the addition of 50 µL of phytohemagglutinin (PHA) (final concentration 20 µg/ml) and incubated at 37°C/5%CO2 for 20 hours. On the following day, the supernatants were collected and assayed for IL-2 levels by ELISA according to the manufacturer's protocols. The IC50 value was calculated as the concentration at which 50% of secreted IL-2 in vehicle is inhibited.

SMILES	IC50 [1]	IC50 [2]
Cn1nc(C(F)(F)F)cc1-c1cc2cc(-c3c(F)cccc3Cl)[nH]c2cn1	640 nM	860 nM
COc1cc(C)c(-c2cnc3[nH]c(-c4c(F)cccc4Cl)cc3c2)cn1 [Ex. 1, 2-(2-Chloro-6-fluorophenyl)-5-(6-methoxy-4-methylpyridin-3-yl)-1H-pyrrolo[2,3-b]pyridine]	71 nM	40 nM
COc1cc(C)c(-c2cnc3[nH]c(-c4c(F)cccc4Cl)cc3n2)cn1 [Ex. 2, 6-(2-Chloro-6-fluorophenyl)-2-(6-methoxy-4-methylpyridin-3-yl)-5H-pyrrolo[2,3-b]pyrazine]	357 nM	100 nM
Cc1cc(S(=O)(=O)N(C)C)ccc1-c1cnc2[nH]c(-c3c(F)cccc3Cl)cc2n1 [Ex. 8, 4-[6-(2-chloro-6-fluorophenyl)-5H-pyrrolo[2,3-b]pyrazin-2-yl]-N,N,3-trimethylbenzenesulfonamide]	800 nM	41 nM
COc1cc(C)c(-c2cnc3[nH]c(-c4c(F)cc(OCCCO)cc4F)cc3c2)cn1 [Ex. 9, 3-{3,5-difluoro-4-[5-(6-methoxy-4-methylpyridin-3-yl)-1H-pyrrolo[2,3-b]pyridin-2-yl]phenoxy}propan-1-ol]	370 nM	210 nM
Fc1cccc(Cl)c1-c1cc2cc(-c3cc4c(cc3Cl)OC(F)(F)O4)cnc2[nH]1 [Ex. 13, 5-(6-Chloro-2,2-difluoro-1,3-benzodioxol-5-yl)-2-(2-chloro-6-fluorophenyl)-1H-pyrrolo[2,3-b]pyridine]	120 nM	56 nM

Next, values leading:

IC50 [1]	IC50 [2]	SMILES
53 nM	36 nM	Cn1nc(C(F)(F)F)cc1-c1ccc2[nH]c(-c3c(F)cccc3Cl)cc2n1 [Ex. 14, 2-(2-Chloro-6-fluorophenyl)-5-[1-methyl-3-(trifluoromethyl)-1H-pyrazol-5-yl]-1H-pyrrolo[3,2-b]pyridine]
390 nM	130 nM	Cn1nc(C(F)(F)F)cc1-c1ccc2[nH]c(C3CCCCC3)cc2n1 [Ex. 16, 2-Cyclohexyl-5-[1-methyl-3-(trifluoromethyl)-1H-pyrazol-5-yl]-1H-pyrrolo[3,2-b]pyridine]
360 nM	110 nM	FC(F)Oc1cc(C(F)(F)F)nn1-c1ccc2[nH]c(C3CCCCC3)cc2n1 [Ex. 30, 2-Cyclohexyl-5-[5-(difluoromethoxy)-3-(trifluoromethyl)-1H-pyrazol-1-yl]-1H-pyrrolo[3,2-b]pyridine]
580 nM	114 nM	CNS(=O)(=O)c1ccc(-c2cnc3[nH]c(-c4c(F)cccc4Cl)cc3n2)c(C)c1 [Ex. 69, 4-(6-(2-Chloro-6-fluorophenyl)-5H-pyrrolo[2,3-b]pyrazin-2-yl)-N,3-dimethylbenzenesulfonamide]
88 nM	117 nM	Cc1nc2cc(Cl)c(-c3cnc4[nH]c(-c5c(F)cccc5Cl)cc4c3)cc2o1 [Ex. 73, 5-Chloro-6-(2-(2-chloro-6-fluorophenyl)-1H-pyrrolo[2,3-b]pyridin-5-yl)-2-methylbenzo[d]oxazole]
